Experimental findings from patent EP1247803A2, “Indolinone compounds suitable for modulation of protein kinases” (Sugen, Inc., priority 1996, dated 1998) are described below.

T1 sequence (P35918 20-1345): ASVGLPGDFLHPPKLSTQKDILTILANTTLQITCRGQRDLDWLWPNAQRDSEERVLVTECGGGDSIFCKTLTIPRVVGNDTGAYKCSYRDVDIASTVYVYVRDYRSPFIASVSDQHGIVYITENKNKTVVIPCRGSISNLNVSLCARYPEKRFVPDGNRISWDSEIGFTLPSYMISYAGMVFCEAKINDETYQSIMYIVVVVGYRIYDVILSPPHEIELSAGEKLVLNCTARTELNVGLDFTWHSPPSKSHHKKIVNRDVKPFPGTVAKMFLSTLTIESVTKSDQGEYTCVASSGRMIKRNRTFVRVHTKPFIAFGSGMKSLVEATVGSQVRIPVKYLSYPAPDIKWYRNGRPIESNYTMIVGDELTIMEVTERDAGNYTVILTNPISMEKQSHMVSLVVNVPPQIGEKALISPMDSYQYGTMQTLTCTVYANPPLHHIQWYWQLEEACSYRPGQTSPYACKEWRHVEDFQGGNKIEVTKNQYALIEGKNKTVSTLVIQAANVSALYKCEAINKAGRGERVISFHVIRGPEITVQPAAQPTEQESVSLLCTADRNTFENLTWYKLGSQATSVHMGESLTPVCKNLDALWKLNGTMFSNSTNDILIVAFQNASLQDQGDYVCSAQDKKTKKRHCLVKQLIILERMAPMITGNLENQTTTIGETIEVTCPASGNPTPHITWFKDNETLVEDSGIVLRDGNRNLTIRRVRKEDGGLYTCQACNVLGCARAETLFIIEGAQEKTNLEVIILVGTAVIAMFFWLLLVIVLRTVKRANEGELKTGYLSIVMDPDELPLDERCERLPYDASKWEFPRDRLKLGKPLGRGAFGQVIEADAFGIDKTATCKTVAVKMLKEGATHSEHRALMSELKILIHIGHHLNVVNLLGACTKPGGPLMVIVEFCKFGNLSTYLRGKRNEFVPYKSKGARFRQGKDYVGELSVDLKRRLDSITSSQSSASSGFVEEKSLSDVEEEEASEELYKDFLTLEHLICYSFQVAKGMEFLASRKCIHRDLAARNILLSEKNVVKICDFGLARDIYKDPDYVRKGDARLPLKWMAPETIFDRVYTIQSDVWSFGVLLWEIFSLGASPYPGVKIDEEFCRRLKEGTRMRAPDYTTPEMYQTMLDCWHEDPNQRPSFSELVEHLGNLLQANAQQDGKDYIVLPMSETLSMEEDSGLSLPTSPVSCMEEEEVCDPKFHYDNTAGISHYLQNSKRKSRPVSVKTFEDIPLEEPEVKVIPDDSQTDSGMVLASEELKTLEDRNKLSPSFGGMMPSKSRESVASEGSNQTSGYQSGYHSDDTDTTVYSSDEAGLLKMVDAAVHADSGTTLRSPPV

This test has as its target T1, FLK-1 receptor (Mus musculus, UniProt P35918).
T1 construct: expressed in transfected cells; host or cells: NIH3T3 C7#3
As to the kind of experiment: FLK-1 ELISA (kinase activity of the FLK-1 receptor in FLK-1/NIH3T3 cells, VEGF stimulated). The format is cell-based. In outline:
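An ELISA using affinity-purified rabbit anti-FLK-1 antiserum on anti-rabbit IgG-coated plates measured VEGF-stimulated FLK-1 kinase activity. NIH3T3 C7#3 cells carrying FLK-1 were serum-starved (0.1% FBS) overnight, then exposed to compound (final 1:200 dilution, 0.5% DMSO) for two hours at 37 °C.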
(In an ELISA, binding on a coated surface is turned into a signal by an enzyme label.)
`O=C(O)COc1ccccc1C=C1C(=O)Nc2ccc(I)cc21` [10728/B10]: the “Fik Kinase %Inhibition” value is 3.9%.

`O=C1Nc2ccc(S(=O)(=O)Nc3ccc(C(F)(F)F)cc3)cc2C1=Cc1cc(O)ccc1O` [10727/E10]: the “Fik Kinase %Inhibition” value stood at 9.7%.

Take `O=C1Nc2ccc(CCCl)cc2C1=Cc1cc2c(cc1Cl)OCO2` [10727/G06]: the “Fik Kinase %Inhibition” value is given as 2.9%.

`COc1cccc(C=C2C(=O)Nc3ccc(CCCl)cc32)c1OC` [10727/G11]: the “Fik Kinase %Inhibition” value was determined as 6.9%.

Regarding `N#Cc1ccc(C=C2C(=O)Nc3ccc(CCCl)cc32)cc1` [10727/G09], the “Fik Kinase %Inhibition” value is on record as 5.7%.

As to `COc1cc(C=C2C(=O)Nc3c(Br)cc(Br)cc32)cc(OC)c1` [10728/A04], the “Fik Kinase %Inhibition” value was -3.5%.

In the case of `O=C1Nc2c(Br)cc(Br)cc2C1=Cc1ccc(Cl)c([N+](=O)[O-])c1` [10718/A08], the “Fik Kinase %Inhibition” value was determined as 3.2%.

With `CNS(=O)(=O)c1ccc2c(c1)C(=Cc1cc3c(cc1Cl)OCO3)C(=O)N2` [10727/D06], the “Fik Kinase %Inhibition” value is 13.1%.

For the compound `O=C1Nc2c(Br)cc(Br)cc2C1=Cc1cc(C(F)(F)F)ccc1F` [10728/A08], the “Fik Kinase %Inhibition” value is given as -1.4%.

Take `CCc1cc(CC)c(C=C2C(=O)Nc3ccc(CCCl)cc32)[nH]1` [10727/G03]: the “Fik Kinase %Inhibition” value was -3.5%.

For `CCOC(=O)c1cc(C=C2C(=O)Nc3c(Br)cc(Br)cc32)oc1C` [10718/A06], the “Fik Kinase %Inhibition” value is given as 7.8%.

Turning to `COc1cc(C=C2C(=O)Nc3ccc(I)cc32)cc2c1OCO2` [10728/B11], the “Fik Kinase %Inhibition” value is -1.0%.

Consider `CNS(=O)(=O)c1ccc2c(c1)C(=Cc1ccccc1Sc1ccc(Cl)cc1)C(=O)N2` [10727/D05], for which the “Fik Kinase %Inhibition” value was determined as 8.5%.

For `O=C1Nc2ccc(CCCl)cc2C1=Cc1coc2ccccc2c1=O` [10727/G07], the “Fik Kinase %Inhibition” value stood at 7.2%.

`CNS(=O)(=O)c1ccc2c(c1)C(=Cc1cc(Cl)cc(Br)c1O)C(=O)N2` [10727/D04]: the “Fik Kinase %Inhibition” value stood at 25.9%.

Turning to `COc1cccc(C=C2C(=O)Nc3ccc(S(=O)(=O)N4CCOCC4)cc32)c1OC` [10727/F11], the “Fik Kinase %Inhibition” value is 17.3%.

Regarding `O=C1Nc2ccc(S(=O)(=O)N3CCOCC3)cc2C1=Cc1cc2c(cc1Cl)OCO2` [10727/F06], the “Fik Kinase %Inhibition” value was found to be 14.5%.

On to `COc1cc(C=C2C(=O)Nc3ccc(Br)c(C)c32)cc(OC)c1` [10728/C04], for which the “Fik Kinase %Inhibition” value is listed as -0.0%.

Consider `Cc1[nH]c(C=C2C(=O)Nc3ccc(CCCl)cc32)c(Br)c1Br` [10717/G11], for which the “Fik Kinase %Inhibition” value is 16.4%.

`Cc1c(Br)ccc2c1C(=Cc1ccccc1OCC(=O)O)C(=O)N2` [10728/C10]: the “Fik Kinase %Inhibition” value turned out to be 6.1%.

For the compound `Cc1c(Br)ccc2c1C(=Cc1cc(C(F)(F)F)ccc1F)C(=O)N2` [10728/C08], the “Fik Kinase %Inhibition” value is -2.2%.

Consider `N#Cc1ccc(C=C2C(=O)Nc3ccc(S(=O)(=O)N4CCOCC4)cc32)cc1` [10727/F09], for which the “Fik Kinase %Inhibition” value is reported as -45.2%.

`Cc1c(Br)ccc2c1C(=Cc1ccc3c(c1)Cc1ccccc1-3)C(=O)N2` [10728/C06]: the “Fik Kinase %Inhibition” value turned out to be 8.4%.

Take `O=C1Nc2ccc(S(=O)(=O)Nc3ccc(C(F)(F)F)cc3)cc2C1=Cc1cc(Cl)cc(Br)c1O` [10727/E04]: the “Fik Kinase %Inhibition” value is listed as 46.1%.

For the compound `CNS(=O)(=O)c1ccc2c(c1)C(=Cc1cc(O)ccc1O)C(=O)N2` [10727/D10], the “Fik Kinase %Inhibition” value is recorded as 11.4%.

With `COc1cccc(C=C2C(=O)Nc3ccc(S(=O)(=O)Nc4ccc(C(F)(F)F)cc4)cc32)c1OC` [10727/E11], the “Fik Kinase %Inhibition” value is 37.3%.

On to `COc1cc(N(C)C)ccc1C=C1C(=O)Nc2c(Br)cc(Br)cc21` [10728/A05], for which the “Fik Kinase %Inhibition” value is -10.8%.

Regarding `O=C1Nc2ccc(I)cc2C1=Cc1cccc(C(F)(F)F)c1F` [10728/B07], the “Fik Kinase %Inhibition” value amounted to 31.4%.

For `COc1cc(N(C)C)ccc1C=C1C(=O)Nc2ccc(Br)c(C)c21` [10728/C05], the “Fik Kinase %Inhibition” value is recorded as -21.7%.

Regarding `COc1ccc(OC)c(C=C2C(=O)Nc3ccc(Br)c(C)c32)c1` [10728/C02], the “Fik Kinase %Inhibition” value is listed as -32.1%.

Take `CCc1cc(CC)c(C=C2C(=O)Nc3ccc(S(=O)(=O)N4CCOCC4)cc32)[nH]1` [10727/F03]: the “Fik Kinase %Inhibition” value came out at 8.9%.

For the compound `CNS(=O)(=O)c1ccc2c(c1)C(=Cc1cccc(C#N)c1)C(=O)N2` [10727/D08], the “Fik Kinase %Inhibition” value is listed as 14.1%.

Consider `CNS(=O)(=O)c1ccc2c(c1)C(=Cc1cc(OC)ccc1OC)C(=O)N2` [10728/D02], for which the “Fik Kinase %Inhibition” value is listed as -0.3%.

On to `COc1cc(C=C2C(=O)Nc3ccc(I)cc32)cc(OC)c1` [10728/B04], for which the “Fik Kinase %Inhibition” value is -6.0%.

As to `O=C1Nc2ccc(CCCl)cc2C1=Cc1cc(Cl)cc(Br)c1O` [10727/G04], the “Fik Kinase %Inhibition” value is 27.2%.

In the case of `N#Cc1cccc(C=C2C(=O)Nc3ccc(S(=O)(=O)Nc4ccc(C(F)(F)F)cc4)cc32)c1` [10727/E08], the “Fik Kinase %Inhibition” value turned out to be 14.2%.

`CNS(=O)(=O)c1ccc2c(c1)C(=Cc1ccc(C#N)cc1)C(=O)N2` [10727/D09]: the “Fik Kinase %Inhibition” value worked out at 8.2%.

For `CCc1cc(CC)c(C=C2C(=O)Nc3ccc(S(=O)(=O)Nc4ccc(C(F)(F)F)cc4)cc32)[nH]1` [10727/E03], the “Fik Kinase %Inhibition” value is given as 11.1%.

Turning to `O=C1Nc2ccc(S(=O)(=O)N3CCOCC3)cc2C1=Cc1cc(O)ccc1O` [10727/F10], the “Fik Kinase %Inhibition” value is 15.9%.

`O=C1Nc2ccc(CCCl)cc2C1=Cc1cc(O)ccc1O` [10727/G10]: the “Fik Kinase %Inhibition” value is given as -5.6%.

As to `COc1ccc(OC)c(C=C2C(=O)Nc3ccc(I)cc32)c1` [10728/B02], the “Fik Kinase %Inhibition” value is -11.1%.

Regarding `O=C1Nc2ccc(I)cc2C1=Cc1c(F)cccc1C(F)(F)F` [10728/B09], the “Fik Kinase %Inhibition” value was found to be 1.7%.

On to `O=C1Nc2ccc(S(=O)(=O)Nc3ccc(C(F)(F)F)cc3)cc2C1=Cc1coc2ccccc2c1=O` [10727/E07], for which the “Fik Kinase %Inhibition” value was determined as 20.1%.

`O=C1Nc2ccc(S(=O)(=O)N3CCOCC3)cc2C1=Cc1cc(Cl)cc(Br)c1O` [10727/F04]: the “Fik Kinase %Inhibition” value stood at 15.3%.

`COc1cc(N(C)C)ccc1C=C1C(=O)Nc2ccc(I)cc21` [10728/B05]: the “Fik Kinase %Inhibition” value is recorded as -12.3%.

Consider `O=C1Nc2ccc(S(=O)(=O)Nc3ccc(C(F)(F)F)cc3)cc2C1=Cc1ccccc1Sc1ccc(Cl)cc1` [10727/E05], for which the “Fik Kinase %Inhibition” value came to 17.1%.

For the compound `O=C1Nc2ccc(S(=O)(=O)N3CCOCC3)cc2C1=Cc1coc2ccccc2c1=O` [10727/F07], the “Fik Kinase %Inhibition” value stood at 21.4%.

`COc1cccc(OC)c1C=C1C(=O)Nc2ccc(I)cc21` [10728/B03]: the “Fik Kinase %Inhibition” value is -1.3%.

In the case of `COc1cc(Br)c(O)c(C=C2C(=O)Nc3c(Br)cc(Br)cc32)c1` [10718/A03], the “Fik Kinase %Inhibition” value is listed as 7.6%.

In the case of `CNS(=O)(=O)c1ccc2c(c1)C(=Cc1ccc3c(c1)Cc1ccccc1-3)C(=O)N2` [10728/D06], the “Fik Kinase %Inhibition” value is 10.4%.

Consider `CCOC(=O)CCc1c(C(=O)OCC)[nH]c(C=C2C(=O)Nc3c(Br)cc(Br)cc32)c1CC(=O)OCC` [10718/A05], for which the “Fik Kinase %Inhibition” value was found to be 3.2%.

As for `COc1cccc(OC)c1C=C1C(=O)Nc2c(Br)cc(Br)cc21` [10728/A03], the “Fik Kinase %Inhibition” value is reported as -7.3%.

Take `COc1cc(C=C2C(=O)Nc3c(Br)cc(Br)cc32)cc2c1OCO2` [10728/A11]: the “Fik Kinase %Inhibition” value is -2.3%.

On to `O=C1Nc2ccc(S(=O)(=O)N3CCOCC3)cc2C1=Cc1ccccc1Sc1ccc(Cl)cc1` [10727/F05], for which the “Fik Kinase %Inhibition” value is given as 21.8%.

Take `O=C1Nc2ccc(I)cc2C1=Cc1cc(C(F)(F)F)ccc1F` [10728/B08]: the “Fik Kinase %Inhibition” value came out at 14.8%.

With `O=C(O)COc1ccccc1C=C1C(=O)Nc2c(Br)cc(Br)cc21` [10728/A10], the “Fik Kinase %Inhibition” value is -16.3%.

In the case of `CCN(CC)c1ccc(C=C2C(=O)Nc3ccc(S(=O)(=O)Nc4ccc(C(F)(F)F)cc4)cc32)cc1` [10727/E02], the “Fik Kinase %Inhibition” value was found to be 9.3%.

For the compound `COc1cc(C=C2C(=O)Nc3ccc(Br)c(C)c32)cc2c1OCO2` [10728/C11], the “Fik Kinase %Inhibition” value is recorded as -10.1%.

For the compound `CCN(CC)c1ccc(C=C2C(=O)Nc3ccc(CCCl)cc32)cc1` [10727/G02], the “Fik Kinase %Inhibition” value is recorded as 7.1%.

Consider `CNS(=O)(=O)c1ccc2c(c1)C(=Cc1ccc(N(C)C)cc1OC)C(=O)N2` [10728/D05], for which the “Fik Kinase %Inhibition” value came out at 4.9%.

For the compound `CNS(=O)(=O)c1ccc2c(c1)C(=Cc1c(OC)cccc1OC)C(=O)N2` [10728/D03], the “Fik Kinase %Inhibition” value came out at 10.2%.

Turning to `O=C1Nc2ccc(S(=O)(=O)Nc3ccc(C(F)(F)F)cc3)cc2C1=Cc1cc2c(cc1Cl)OCO2` [10727/E06], the “Fik Kinase %Inhibition” value stood at 14.2%.

For the compound `N#Cc1cccc(C=C2C(=O)Nc3ccc(CCCl)cc32)c1` [10727/G08], the “Fik Kinase %Inhibition” value is 15.7%.

With `CNS(=O)(=O)c1ccc2c(c1)C(=Cc1cc(OC)cc(OC)c1)C(=O)N2` [10728/D04], the “Fik Kinase %Inhibition” value came to 6.8%.

As for `CCN(CC)c1ccc(C=C2C(=O)Nc3ccc(S(=O)(=O)N4CCOCC4)cc32)cc1` [10727/F02], the “Fik Kinase %Inhibition” value was found to be 15.9%.

With `COc1cccc(OC)c1C=C1C(=O)Nc2ccc(Br)c(C)c21` [10728/C03], the “Fik Kinase %Inhibition” value stood at 10.5%.

For `O=C1Nc2c(Br)cc(Br)cc2C1=Cc1cccc(C(F)(F)F)c1F` [10728/A07], the “Fik Kinase %Inhibition” value is listed as -21.6%.

For the compound `Cc1c(Br)ccc2c1C(=Cc1c(F)cccc1C(F)(F)F)C(=O)N2` [10728/C09], the “Fik Kinase %Inhibition” value is on record as 14.5%.

As to `CNS(=O)(=O)c1ccc2c(c1)C(=Cc1cccc(OC)c1OC)C(=O)N2` [10727/D11], the “Fik Kinase %Inhibition” value amounted to 10.5%.

On to `COc1ccc(OC)c(C=C2C(=O)Nc3c(Br)cc(Br)cc32)c1` [10728/A02], for which the “Fik Kinase %Inhibition” value was -12.3%.

Regarding `Cc1c(Br)ccc2c1C(=Cc1cccc(C(F)(F)F)c1F)C(=O)N2` [10728/C07], the “Fik Kinase %Inhibition” value is listed as -7.2%.

For the compound `O=C1Nc2ccc(CCCl)cc2C1=Cc1ccccc1Sc1ccc(Cl)cc1` [10727/G05], the “Fik Kinase %Inhibition” value came out at 8.0%.
